In series [1] the test system is pentagastrin-stimulated acid secretion of the perfused rat stomach. Briefly: Secretion-inhibiting action on the perfused rat stomach (pentagastrin-stimulated acid secretion, intraduodenal administration in vivo). The conditions noted are these: intraduodenal, dose 1 μmol/kg i.d., anesthetized female CD rat. The text has this: Testing of the Secretion-Inhibiting Action on the Perfused Rat Stomach
In Table A which follows, the influence of the compounds according to the invention on the pentagastrin-stimulated acid secretion of the perfused rat stomach after intraduodenal administration in vivo is shown.
The abdomen of anesthetized rats (CD rat, female, 200-250 g; 1.5 g/kg i.m. urethane) was opened after tracheotomy by a median upper abdominal incision and a PVC catheter was fixed transorally in the esophagus and another via the pylorus such that the ends of the tubes just projected into the gastric lumen. The catheter leading form the pylorus led outward into the right abdominal wall through a side opening.
After thorough rinsing (about 50-100 ml), warm (37° C.) physiological NaCl solution was continuously passed through the stomach (0.5 ml/min, pH 6.8-6.9; Braun-Unita I). The pH (pH meter 632, glass electrode EA 147; φ=5 mm, Metrohm) and, by titration with a freshly prepared 0.01 N NaOH solution to pH 7 (Dosimat 665 Metrohm), the secreted HCl were determined in the effluent in each case collected at an interval of 15 minutes.
The gastric secretion was stimulated by continuous infusion of 1 μg/kg (=1.65 ml/h) of i.v. pentagastrin (left femoral vein) about 30 min after the end of the operation (i.e. after determination of 2 preliminary fractions). The substances to be tested were administered intraduodenally in a 2.5 ml/kg liquid volume 60 min after the start of the continuous pentagastrin infusion.
The body temperature of the animals was kept at a constant 37.8-38° C. by infrared irradiation and heat pads (automatic, stepless control by means of a rectal temperature sensor).

SMILES strings stand for the structures. Bounds are passed on as bounds.

For orientation: inhibition in vivo means the relative decrease from the control value, in per cent. A lower inhibition in vivo goes with a response near the control. Broadly, the melting point is the temperature of the solid-liquid transition. As for `CCc1cccc(C)c1CNc1cc(C(=O)N(C)C)cc2c1ncn2C.Cl` [Example 45, 6-(N,N-Dimethylaminocarbonyl)-4-(2-ethyl-6-methyl-benzylamino)-1-methyl-1H-benzimidazole Hydrochloride], the melting point is 183 to 184 °C. The inhibition in vivo at 1 µmol/kg in series [1] is above 50%.

In turn, `Cc1cccc(C)c1CNc1cc(C(=O)N(C)C)cc2c1nc(C)n2C` [Example 46, 6-(N,N-Dimethylaminocarbonyl)-4-(2,6-dimethyl-benzylamino)-1,2-dimethyl-1H-benzimidazole] gave a melting point of 142 to 143 °C. Moreover, in series [1], the inhibition in vivo at 1 µmol/kg was above 50%.

As for `CCc1cccc(C)c1CNc1cc(C(=O)N(C)C)cc2[nH]c(C)nc12` [Example 49, 6-(N,N-Dimethylaminocarbonyl)-4-(2-ethyl-6-methyl-benzylamino)-2-methyl-1H-benzimidazole], the melting point lay in the range of 228 to 230 °C. Moreover, the inhibition in vivo at 1 µmol/kg in series [1] was above 50%.

For `CNC(=O)c1cc(NCc2c(C)cccc2C)c2nc(C)n(C)c2c1` [Example 55, 4-(2,6-Dimethyl-benzylamino)-1,2-dimethyl-6-(N-methylaminocarbonyl)-1H-benzimidazole], the melting point is 252 to 253 °C. In addition, the inhibition in vivo at 1 µmol/kg in series [1] was above 50%.

The values are drawn from patent publication US20060194969A1, “4-Substituted benzimidazoles and their uses as inhibitors of gastric secretion” (priority 2002, published 2006).
